How the values were obtained:
Assay type in all cases: cell-based
[1] = system: S. aureus, E. faecalis and S. pneumoniae; assay: In vitro antibacterial action of haloaryl derivatives on standard and resistent test microorganisms; conditions: comparison within the series
Text: (§1) In vitro action of the novel compounds was investigated on a series of standard and resistent test microorganisms. […] In N′-(C1-C6)haloalkylcarbamoyl derivatives similar traits were observed.

[2] = system: test microorganisms sensitive to erythromycin; assay: In vitro antibacterial activity against erythromycin-sensitive test microorganisms
Text: as §1

[3] = system: resistent strains; assay: In vitro antibacterial activity against resistent strains
Text: as §1

SMILES: CC[C@H]1OC(=O)[C@H](C)[C@@H](O[C@H]2C[C@@](C)(OC)[C@@H](O)[C@H](C)O2)[C@H](C)[C@@H](O[C@@H]2O[C@H](C)C[C@H](N(C)C)[C@H]2O)[C@](C)(O)C[C@@H](C)CN(C(=S)Nc2cccc(C(F)(F)F)c2)[C@H](C)[C@@H](O)[C@]1(C)O [Example 21, 9-deoxo-9a-N-{N′-[(3-trifluoromethyl-phenyl)thiocarbamoyl]}-9a-aza-9a-homoerythromycin A]
- antibacterial in vitro activity (effectiveness) [1]: the most active one
- activity against test microorganisms sensitive to erythromycin [2]: activity against test microorganisms sensitive to erythromycin
- activity against resistent strains [3]: showed an activity against resistent strains

From patent US6872707B1, “Halo derivatives of 9-deoxo-9a-aza-homerythromycin A” (PLIVA farmaceutska industrija dionicko drustvo, priority 1999, dated 2005)
